According to the supplement of paper PMC10307832:

Key:
Assay in all cases: relative viability (nuclei count vs DMSO), 5 days (fraction); higher = more cells survive
Crenolanib + Decitabine = compound: CC1(COc2ccc3c(c2)ncn3-c2ccc3cccc(N4CCC(N)CC4)c3n2)COC1 [Crenolanib] + Nc1ncn([C@H]2C[C@H](O)[C@@H](CO)O2)c(=O)n1 [Decitabine] (partner 2 µM)
Outline: (§1)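 Lung cancer cell lines in 1536-well plates were dosed by pin tool the day after seeding, either with one drug alone or with a fixed anchor-drug dose plus five library-drug doses (not always all listed) in √10 steps. After 5 days, cells were fixed and their nuclei stained in one step (final 0.05% Triton X-100, 1% formaldehyde, 1 ug/ml Hoechst), then counted on 4× images. Relative viability is the nuclei count in treated wells divided by that in vehicle wells. Values are medians of duplicate plates.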

Crenolanib + Pictilisib = compound: CC1(COc2ccc3c(c2)ncn3-c2ccc3cccc(N4CCC(N)CC4)c3n2)COC1 [Crenolanib] + CS(=O)(=O)N1CCN(Cc2cc3nc(-c4cccc5[nH]ncc45)nc(N4CCOCC4)c3s2)CC1 [Pictilisib] (partner 1 µM)
Outline: as §1

Tivantinib + Crizotinib = compound: O=C1NC(=O)[C@@H](c2cn3c4c(cccc24)CCC3)[C@@H]1c1c[nH]c2ccccc12 [Tivantinib] + C[C@@H](Oc1cc(-c2cnn(C3CCNCC3)c2)cnc1N)c1c(Cl)ccc(F)c1Cl [Crizotinib] (partner 1 µM)
Outline: as §1

Tivantinib + Trametinib = compound: O=C1NC(=O)[C@@H](c2cn3c4c(cccc24)CCC3)[C@@H]1c1c[nH]c2ccccc12 [Tivantinib] + CC(=O)Nc1cccc(-n2c(=O)n(C3CC3)c(=O)c3c(Nc4ccc(I)cc4F)n(C)c(=O)c(C)c32)c1 [Trametinib] (partner 0.02 µM)
Outline: as §1

UMC-11
relative viability (Crenolanib + Decitabine; first compound 0.01 µM): 0.669
relative viability (Crenolanib + Decitabine; first compound 0.03162 µM): 0.578
relative viability (Crenolanib + Decitabine; first compound 0.1 µM): 0.627
relative viability (Crenolanib + Decitabine; first compound 0.3162 µM): 0.588
relative viability (Crenolanib + Decitabine; first compound 1 µM): 0.557
relative viability (Crenolanib + Pictilisib; first compound 0.01 µM): 0.76
relative viability (Crenolanib + Pictilisib; first compound 0.03162 µM): 0.834
relative viability (Crenolanib + Pictilisib; first compound 0.1 µM): 0.787
relative viability (Crenolanib + Pictilisib; first compound 0.3162 µM): 0.848
relative viability (Crenolanib + Pictilisib; first compound 1 µM): 0.733
relative viability (Tivantinib + Crizotinib; first compound 0.01 µM): 0.662
relative viability (Tivantinib + Crizotinib; first compound 0.03162 µM): 0.601
relative viability (Tivantinib + Crizotinib; first compound 0.1 µM): 0.637
relative viability (Tivantinib + Crizotinib; first compound 0.3162 µM): 0.531
relative viability (Tivantinib + Trametinib; first compound 0.01 µM): 0.678
relative viability (Tivantinib + Trametinib; first compound 0.03162 µM): 0.451
relative viability (Tivantinib + Trametinib; first compound 0.1 µM): 0.666
relative viability (Tivantinib + Trametinib; first compound 0.3162 µM): 0.693
